Source: US10882837B2, “Amide compounds and use thereof” (ALPHALA CO., LTD., priority 2017, dated 2021)

What was measured:
GCGR = GCGR (Homo sapiens, UniProt P47871); assay: I125-glucagon binding assay (competition, GCGR membrane fractions); design: expressed in transfected cells; host or cells: CHO-K1; inhibition: dose or concentration left out as unconfirmed; conditions: for IC50: competition with I125-glucagon 0.0625 nM, membrane fractions from GCGR overexpressed CHO-K1 cells
Summary of the method: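 Membranes from CHO-K1 cells overexpressing GCGR (7.5 µg/well) were preincubated 5 min with serially diluted compound in 50 mM Tris pH 7.4, 0.5% BSA. I125-glucagon was then added at 0.0625 nM final and incubated 30 min at 25 °C. After filtration, bound radioactivity was counted and IC50 derived by non-linear regression.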

glucagon receptor (GCGR) = target: T1, glucagon receptor (GCGR) (Homo sapiens, UniProt P47871); assay: Glucagon cAMP inhibition assay (Cisbio cAMP Dynamic 2 HTRF); type: cell-based; conditions: GCGR overexpressed CHO-K1 cells or human primary hepatocytes (not specified); glucagon at EC50
T1 construct: expressed in transfected cells; host or cells: CHO-K1
T1 sequence (P47871 26-477, species assumed): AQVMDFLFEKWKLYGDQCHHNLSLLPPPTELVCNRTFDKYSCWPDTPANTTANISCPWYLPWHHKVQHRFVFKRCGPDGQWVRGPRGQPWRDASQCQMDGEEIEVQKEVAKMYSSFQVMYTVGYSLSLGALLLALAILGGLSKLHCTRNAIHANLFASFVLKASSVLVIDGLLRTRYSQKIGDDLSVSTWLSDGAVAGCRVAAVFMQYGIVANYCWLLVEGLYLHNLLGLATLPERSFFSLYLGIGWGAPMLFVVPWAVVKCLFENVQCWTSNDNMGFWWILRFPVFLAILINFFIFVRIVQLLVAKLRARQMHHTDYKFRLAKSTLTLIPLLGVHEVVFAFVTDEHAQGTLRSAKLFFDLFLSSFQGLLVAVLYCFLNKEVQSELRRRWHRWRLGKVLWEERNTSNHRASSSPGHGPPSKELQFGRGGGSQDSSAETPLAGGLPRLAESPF
Summary of the method: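 GCGR-overexpressing CHO-K1 cells or human primary hepatocytes in HBSS with 0.1% BSA and 800 nM IBMX, pre-incubated 30 min with compound (1% DMSO final), then stimulated 30 min at room temperature with glucagon at its EC50. cAMP measured by HTRF after 60 min lysis; IC50 from non-linear regression.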

Sequence of GCGR (P47871 26-477, species assumed): as above

| SMILES | IC50 (GCGR) | IC50 (glucagon receptor (GCGR)) | inhibition (GCGR; read-out: percentage of inhibition (number in parenthesis in IC50 binding column)) |
| --- | --- | --- | --- |
| COC(=O)CCNC(=O)c1ccc(NC(c2ccc(-c3noc(-c4ccccc4)n3)cc2)C(C)C)cc1 (stereo not drawn) [Compound 2-31, methyl 3-(4-((2-methyl-1-(4-(5-phenyl-1,2,4-oxadiazol-3-yl)phenyl)propyl)amino)benzamido)propanoate] | 204 nM | 97 nM |  |
| CCOC(=O)CCNC(=O)c1ccc(NC(c2ccc(-c3nnc(-c4ccc(F)cc4)o3)cc2)C(C)CC)cc1 (stereo not drawn) [Compound 1-29, ethyl 3-(4-((1-(4-(5-(4-fluorophenyl)-1,3,4-oxadiazol-2-yl)phenyl)-2-methylbutyl)amino)benzamido)propanoate] | 4720 nM | 114 nM |  |
| CCOC(=O)CCNC(=O)c1ccc(N[C@@H](c2ccc(-c3nnc(-c4ccccc4)o3)cc2)C(C)CC)cc1 (stereo partly drawn) [Compound 1-48, ethyl 3-(4-(((1R)-2-methyl-1-(4-(5-phenyl-1,3,4-oxadiazol-2-yl)phenyl)butyl)amino)benzamido)propanoate] | > 30000 nM | 164 nM |  |
| O=C(O)CCNC(=O)c1ccc(N[C@H](c2ccc(-c3nc4ccccc4o3)cc2)C2CCCC2)cc1 [Compound 4-24, (S)-3-(4-(((4-(benzo[d]oxazol-2-yl)phenyl)(cyclopentyl)methyl)amino)benzamido)propanoic acid] | 95 nM | 862 nM |  |
| O=C(O)CCNC(=O)c1ccc(N[C@@H](c2ccc(-c3nc4ccccc4o3)cc2)C2CCCC2)cc1 [Compound 4-12, (R)-3-(4-(((4-(benzo[d]oxazol-2-yl)phenyl)(cyclopentyl)methyl)amino)benzamido)propanoic acid] | 23.8 nM | 754 nM |  |
| CCOC(=O)CCNC(=O)c1ccc(N[C@H](c2ccc(-c3noc(-c4ccccc4)n3)cc2)C(C)C)cc1 [Compound 2-27, ethyl (S)-3-(4-((2-methyl-1-(4-(5-phenyl-1,2,4-oxadiazol-3-yl)phenyl)propyl)amino)benzamido)propanoate] | 634 nM | 61 nM |  |
| CCCC[C@H](Nc1ccc(C(=O)NCCC(=O)OCC)cc1)c1ccc(-c2noc(-c3ccccn3)n2)cc1 [Compound 2-37, ethyl (S)-3-(4-((1-(4-(5-(pyridin-2-yl)-1,2,4-oxadiazol-3-yl)phenyl)pentyl)amino)benzamido)propanoate] | 1100 nM | 89.7 nM |  |
| CC(C)CC(Nc1ccc(C(=O)NCCC(=O)O)cc1)c1ccc(-c2nnc(C(C)(C)C)o2)cc1 (stereo not drawn) [Compound 1-12] | 455 nM | 6710 nM |  |
| CCOC(=O)CCNC(=O)c1ccc(N[C@H](c2ccc(-c3nc4ccccc4o3)cc2)C(C)C)nc1 [Compound 4-29, ethyl (S)-3-(6-((1-(4-(benzo[d]oxazol-2-methylpropyl)amino)nicotinamido propanoate] | 285 nM | 53.4 nM |  |
| CCC(C)C(Nc1ccc(-c2nnc(-c3ccccc3)o2)cc1)c1ccc(C(=O)NCCC(=O)O)cc1 (stereo not drawn) [Compound 3-6, 3-(4-(2-methyl-1-((4-(5-phenyl-1,3,4-oxadiazol-2-yl)phenyl)amino)butyl)benzamido)propanoic acid] | 58 nM | 650 nM |  |
| CC(C)C(Nc1ccc(C(=O)NCCC(=O)O)cc1)c1ccc(-c2noc(C(C)(C)C)n2)cc1 (stereo not drawn) [Compound 2-2, 3-(4-((1-(4-(5-(tert-butyl)-1,2,4-oxadiazol-3-yl)phenyl)-2-methylpropyl)amino)benzamido)propanoic acid] | 171 nM | 878 nM |  |
| CC(C)C(Oc1ccc(C(=O)NCCC(=O)O)cc1)c1ccc(-c2nc3ccccc3s2)cc1 (stereo not drawn) [Compound 6-2, 3-(4-(1-(4-(Benzo[d]thiazol-2-yl)phenyl)-2-methylpropoxy)benzamido)propanoic acid] | 1110 nM | 133 nM |  |
| CCCC[C@@H](Nc1ccc(C(=O)NCCC(=O)OCC)cc1)c1ccc(-c2noc(-c3ccccn3)n2)cc1 [Compound 2-39, ethyl (R)-3-(4-((1-(4-(5-(pyridin-2-yl)-1,2,4-oxadiazol-3-yl)phenyl)pentyl)amino)benzamido)propanoate] | > 30000 nM | 672 nM |  |
| CCOC(=O)CCNC(=O)c1ccc(N[C@@H](CC(C)C)c2ccc(-c3nc4ccccc4o3)cc2)cc1 [Compound 4-17, ethyl (S)-3-(4-((1-(4-(benzo[d]oxazol-2-yl)phenyl)-3-methylbutyl)amino)benzamido)propanoate] | 745 nM | 96 nM |  |
| CCOC(=O)CCNC(=O)c1ccc(N[C@H](c2ccc(-c3nc4ccccc4o3)cc2)C(C)C)cc1 [Compound 4-5, ethyl (S)-3-(4-((1-(4-(benzo[d]oxazol-2-yl)phenyl)-2-methylpropyl)amino)benzamido)propanoate] | 714 nM | 26.5 nM |  |
| CCC(C)[C@H](Nc1ccc(C(=O)NCCC(=O)O)cc1)c1ccc(-c2nc3ccccc3o2)cc1 (stereo partly drawn) [Compound 4-20, 3-(4-(((1S)-1-(4-(benzo[d]oxazol-2-yl)phenyl)-2-methylbutyl)amino)benzamido)propanoic acid] | 17 nM | 984 nM |  |

| SMILES | IC50 (GCGR) | IC50 (glucagon receptor (GCGR)) | inhibition (GCGR; read-out: percentage of inhibition (number in parenthesis in IC50 binding column)) |
| --- | --- | --- | --- |
| CCC(C)[C@@H](Nc1ccc(C(=O)NCCC(=O)O)cc1)c1ccc(-c2nnc(C(F)(F)F)o2)cc1 (stereo partly drawn) [Compound 1-37, 3-(4-(((1R)-2-methyl-1-(4-(S-(trifluoromethyl)-1,3,4-oxadiazol-2-yl)phenyl)butyl)amino)benzamido)propanoic acid] | 1640 nM | 3260 nM |  |
| CCOC(=O)CCNC(=O)c1ccc(NC(c2ccc(-c3nnc(C(C)(C)C)o3)cc2)C(C)CC)cc1 (stereo not drawn) [Compound 1-21, Ethyl 3-(4-((1-(4-(5-(tert-butyl)-1,3,4-oxadiazol-2-yl)phenyl)-2-methylbutyl)amino)benzamido)propanoate] | 3310 nM | 126 nM |  |
| CC(C)[C@@H](Nc1ccc(C(=O)NCCC(=O)O)cc1)c1ccc(-c2nnc(-c3ccccc3)o2)cc1 [Compound 1-42, (R)-3-(4-(2-methyl-1-(4-(5-phenyl-1,3,4-oxadiazol-2-yl)phenyl)propylamino)benzamido)propanoic acid] | 2920 nM | 2930 nM |  |
| CCOC(=O)CCNC(=O)c1ccc(N[C@@H](c2ccc(-c3nc4ccccc4o3)cc2)C(C)C)cc1 [Compound 4-6, ethyl (R)-3-(4-((1-(4-(benzo[d]oxazol-2-yl)phenyl)-2-methylpropyl)amino)benzamido)propanoate] | > 3000 nM | 124 nM |  |
| CCOC(=O)CCNC(=O)c1ccc(N[C@H](CC(C)C)c2ccc(-c3nnc(-c4ccccc4)o3)cc2)cc1 [Compound 1-60, ethyl (R)-3-(4-((3-methyl-1-(4-(5-phenyl-1,3,4-oxadiazol-2-yl)phenyl)butyl)amino)benzamido)propanoate] | > 30000 nM | 114 nM |  |
| CCCC[C@H](Nc1ccc(C(=O)NCCC(=O)OCC)cc1)c1ccc(-c2nnc(-c3ccccn3)o2)cc1 [Compound 1-43, ethyl (S)-3-(4-((1-(4-(5-(pyridin-2-yl)-1,3,4-oxadiazol-2-yl)phenyl)pentyl)amino)benzamido)propanoate] | 1480 nM | 46.4 nM |  |
| CCCC[C@@H](Nc1ccc(C(=O)NCCC(=O)O)cc1)c1ccc(-c2nnc(-c3ccccn3)o2)cc1 [Compound 1-46] | 702 nM | > 30000 nM |  |
| CCCCC(Nc1ccc(C(=O)NCCC(=O)OCC)cc1)c1ccc(-c2nnc(C(C)(C)C)o2)cc1 (stereo not drawn) [Compound 1-19, Ethyl 3-(4-((1-(4-(5-(tert-butyl)-1,3,4-oxadiazol-2-yl)phenyl)pentyl)amino)benzamido)propanoate] | 4410 nM | 203 nM |  |
| CCCCC(Nc1ccc(C(=O)NCCC(=O)OCC)cc1)c1ccc(-c2noc(-c3ccccc3)n2)cc1 (stereo not drawn) [Compound 2-7, ethyl 3-(4-((1-(4-(5-phenyl-1,2,4-oxadiazol-3-yl)phenyl)pentyl)amino)benzamido)propanoate] | 1210 nM | 49 nM | 27% |
| CCC(C)C(Nc1ccc(C(=O)NCCC(=O)O)cc1)c1ccc(-c2nnc(-c3ccc(F)cc3)o2)cc1 (stereo not drawn) [Compound 1-30, 3-(4-((1-(4-(5-(4-fluorophenyl)-1,3,4-oxadiazol-2-yl)phenyl)-2-methylbutyl)amino)benzamido)propanoic acid] | 347 nM | 3410 nM |  |
| CCCCC(Nc1ccc(C(=O)NCCC(=O)OCC)cc1)c1ccc(-c2noc(C(C)(C)C)n2)cc1 (stereo not drawn) [Compound 2-3] | > 30000 nM | 225 nM |  |
| CC(C)CC(Nc1ccc(C(=O)NCCC(=O)O)cc1)c1ccc(-c2nnc(-c3ccc(F)cc3)o2)cc1 (stereo not drawn) [Compound 1-28, 3-(4-((1-(4-(5-(4-fluorophenyl)-1,3,4-oxadiazol-2-yl)phenyl)-3-methylbutyl)amino)benzamido)propanoic acid] | 563 nM | 4760 nM |  |
| O=C(O)CCNC(=O)c1ccc(NC(c2ccc(-c3noc(-c4ccccc4)n3)cc2)C2CCCC2)cc1 (stereo not drawn) [Compound 2-15, 3-(4-((cyclopentyl(4-(5-phenyl-1,2,4-oxadiazol-3-yl)phenyl)methyl)amino)benzamido)propanoic acid] | 106 nM | 450 nM |  |
| CC(C)[C@H](Nc1ccc(C(=O)NCCC(=O)O)cc1)c1ccc(-c2nc3ccccc3o2)cc1 [Compound 4-7, (S)-3-(4-((1-(4-(benzo[d]oxazol-2-yl)phenyl)-2-methylpropyl)amino)benzamido)propanoic acid] | 20 nM | 651 nM |  |
| CC(C)CC(Nc1ccc(C(=O)NCCC(=O)O)cc1)c1ccc(-c2noc(-c3ccccc3)n2)cc1 (stereo not drawn) [Compound 2-10, 3-(4-((3-methyl-1-(4-(5-phenyl-1,2,4-oxadiazol-3-yl)phenyl)butyl)amino)benzamido)propanoic acid] | 124 nM | 959 nM |  |
